Assay results published in ChEMBL document CHEMBL1201862, “PubChem BioAssay data set” (2004).
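Cultured in 96-well plates, cells were exposed to test compound for 48 hours across five concentrations. GI50 = concentration required for 50% inhibition of growth.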 Active and inactive are the calls of the source. No stated cut-off is given here; in the data, active = GI50 up to about 1.1 µM and inactive = higher.

Tests used:
Experiment in all cases: growth of human tumour cells (NCI), 48 h
786-0 = tested on: 786-0
BT-549 = tested on: BT-549
COLO 205 = tested on: COLO 205
EKVX = tested on: EKVX
HCC 2998 = tested on: HCC 2998
HCT-116 = tested on: HCT-116
HCT-15 = tested on: HCT-15
HOP-62 = tested on: HOP-62
HOP-92 = tested on: HOP-92
IGROV-1 = tested on: IGROV-1
KM12 = tested on: KM12
NCI-H23 = tested on: NCI-H23
NCI/ADR-RES = tested on: NCI/ADR-RES
OVCAR-8 = tested on: OVCAR-8
SF-295 = tested on: SF-295
SK-MEL-28 = tested on: SK-MEL-28
SK-MEL-5 = tested on: SK-MEL-5
SK-OV-3 = tested on: SK-OV-3
SNB-75 = tested on: SNB-75
T47D = tested on: T47D

Compound | GI50 (786-0) | GI50 (BT-549) | GI50 (COLO 205) | GI50 (EKVX) | GI50 (HCC 2998) | GI50 (HCT-116) | GI50 (HCT-15) [µM] | GI50 (HOP-62) | GI50 (HOP-92) | GI50 (IGROV-1) | GI50 (KM12) | GI50 (NCI-H23) | GI50 (NCI/ADR-RES) | GI50 (OVCAR-8) | GI50 (SF-295) | GI50 (SK-MEL-28) | GI50 (SK-MEL-5) | GI50 (SK-OV-3) | GI50 (SNB-75) | GI50 (T47D)
Cc1cc(CN(Cc2ccccc2)Cc2nc3ccccc3[nH]2)c(O)c(CN(Cc2nc3ccccc3[nH]2)Cc2nc3ccccc3[nH]2)c1 | 15 µM (inactive) | 4.76 µM (inactive) | 19.8 µM (inactive) | 11.4 µM (inactive) | 6.43 µM (inactive) | 4.16 µM (inactive) | 2.81 | 5.26 µM (inactive) | 3.48 µM (inactive) | 5.04 µM (inactive) | 6.3 µM (inactive) | 6.93 µM (inactive) | 5.06 µM (inactive) | 4.18 µM (inactive) | 6.15 µM (inactive) | 26.2 µM (inactive) | 6.73 µM (inactive) | 5.55 µM (inactive) | 8.91 µM (inactive) | 8.05 µM (inactive)
N#C/C(=C\c1ccc2[nH]ccc2c1)C(=O)NCCCCNC(=O)/C(C#N)=C/c1ccc2[nH]ccc2c1 | > 31.6 µM (inactive) | > 10 µM (inactive) | > 31.6 µM (inactive) | > 31.6 µM (inactive) | > 31.6 µM (inactive) | > 31.6 µM (inactive) | > 31.6 | > 31.6 µM (inactive) | > 31.6 µM (inactive) | > 31.6 µM (inactive) | > 31.6 µM (inactive) | > 31.6 µM (inactive) | > 10 µM (inactive) | > 31.6 µM (inactive) | > 31.6 µM (inactive) | > 31.6 µM (inactive) | > 31.6 µM (inactive) | > 31.6 µM (inactive) | > 31.6 µM (inactive) | > 10 µM (inactive)
CCCCCCCCCCCCOP(=O)(O)OP(=O)(O)OCC1OC(n2ccc(N)nc2=O)CC1O (stereo not given) | > 100 µM (inactive) | > 100 µM (inactive) | > 100 µM (inactive) | > 100 µM (inactive) | > 100 µM (inactive) | > 100 µM (inactive) | > 100 | > 100 µM (inactive) | > 100 µM (inactive) | > 100 µM (inactive) | > 100 µM (inactive) | > 100 µM (inactive) | > 100 µM (inactive) | > 100 µM (inactive) | > 100 µM (inactive) | > 100 µM (inactive) | > 100 µM (inactive) | > 100 µM (inactive) | 95.9 µM (inactive) | 38.3 µM (inactive)
Cc1ccc(S(=O)(=O)Oc2cc(N)c3c(n2)CCC3)cc1 | > 100 µM (inactive) | > 100 µM (inactive) | 53.5 µM (inactive) | 42.3 µM (inactive) | > 100 µM (inactive) | > 100 µM (inactive) | > 100 | > 100 µM (inactive) | 52.6 µM (inactive) | > 100 µM (inactive) | > 100 µM (inactive) | > 100 µM (inactive) | 79.8 µM (inactive) | > 100 µM (inactive) | 53.8 µM (inactive) | > 100 µM (inactive) | 39 µM (inactive) | > 100 µM (inactive) | > 100 µM (inactive) | 56.4 µM (inactive)
CC1CCCc2c(CC3CC(=O)NC(=O)C3)nc(N)nc21 (stereo not given) | > 100 µM (inactive) | > 100 µM (inactive) | > 100 µM (inactive) | > 100 µM (inactive) | > 100 µM (inactive) | > 100 µM (inactive) | > 100 | > 100 µM (inactive) | > 100 µM (inactive) | > 100 µM (inactive) | > 100 µM (inactive) | > 100 µM (inactive) | > 100 µM (inactive) | > 100 µM (inactive) | > 100 µM (inactive) | > 100 µM (inactive) | > 100 µM (inactive) | > 100 µM (inactive) | 95.7 µM (inactive) | > 100 µM (inactive)
O=c1sc2c(s1)-c1sc(=O)sc1SS2 | > 100 µM (inactive) | > 100 µM (inactive) | > 46 µM (inactive) | > 76.2 µM (inactive) | > 100 µM (inactive) | > 100 µM (inactive) | 18.7 | > 100 µM (inactive) | > 100 µM (inactive) | > 96.4 µM (inactive) | > 100 µM (inactive) | > 37.5 µM (inactive) | 26.7 µM (inactive) | 21.6 µM (inactive) | > 100 µM (inactive) | > 100 µM (inactive) | > 56.5 µM (inactive) | > 100 µM (inactive) | 7.71 µM (inactive) | > 100 µM (inactive)
O=C(/C(=N\Nc1ccc([N+](=O)[O-])cc1[N+](=O)[O-])NC12CC3CC(CC(C3)C1)C2)C(Br)C(=O)c1ccccc1 (stereo not given) | 3.21 µM (inactive) | 4.44 µM (inactive) | 2.18 µM (inactive) | 3.56 µM (inactive) | 3.98 µM (inactive) | 3.05 µM (inactive) | 4.99 | 2.74 µM (inactive) | 2.79 µM (inactive) | 6.67 µM (inactive) | 2.78 µM (inactive) | 3.33 µM (inactive) | 3.23 µM (inactive) | 3.48 µM (inactive) | 3.99 µM (inactive) | 9.31 µM (inactive) | 1.08 µM (active) | 2.75 µM (inactive) | 2.48 µM (inactive) | 2.69 µM (inactive)
COC(=O)C(CCC(=O)CCl)N1C(=O)c2ccccc2C1=O (stereo not given) | 4.05 µM (inactive) | 8.97 µM (inactive) | 15.6 µM (inactive) | 19.9 µM (inactive) | 8.18 µM (inactive) | 5.07 µM (inactive) | 4.25 | 16.1 µM (inactive) | 5.78 µM (inactive) | 12.4 µM (inactive) | 20.2 µM (inactive) | 9.89 µM (inactive) | 9.42 µM (inactive) | 12.3 µM (inactive) | 17.7 µM (inactive) | 10.7 µM (inactive) | 4.95 µM (inactive) | 16 µM (inactive) | 8.13 µM (inactive) | 6.25 µM (inactive)
O=C1Nc2ccccc2/C1=N/NC(=S)NCc1ccccn1 | 0.355 µM (active) | 1.09 µM (active) | < 0.01 µM (active) | 0.294 µM (active) | 0.975 µM (active) | < 0.01 µM (active) | 0.0326 | 0.483 µM (active) | 1.11 µM (active) | 0.0721 µM (active) | 0.698 µM (active) | 0.533 µM (active) | 0.418 µM (active) | 0.346 µM (active) | 0.507 µM (active) | 2.36 µM (inactive) | 0.551 µM (active) | 1.12 µM (inactive) | 0.454 µM (active) | 0.0343 µM (active)
Cc1coc2c1CC1OC1(C)CCC1OC1(C)C2 (stereo not given) | > 100 µM (inactive) | > 100 µM (inactive) | > 100 µM (inactive) | > 100 µM (inactive) | > 100 µM (inactive) | > 100 µM (inactive) | > 100 | > 100 µM (inactive) | > 100 µM (inactive) | > 100 µM (inactive) | > 100 µM (inactive) | > 100 µM (inactive) | > 100 µM (inactive) | > 100 µM (inactive) | > 100 µM (inactive) | > 100 µM (inactive) | > 100 µM (inactive) | > 100 µM (inactive) | > 100 µM (inactive) | > 100 µM (inactive)
